Consider one molecule from patent publication US20120252825A1, “BENEFICIAL EFFECTS OF COMBINATION THERAPY ON CHOLESTEROL” (Pfizer Inc., priority 2011, published 2012).

Like-named read-outs stand apart in the source and are kept apart here.

One test deals with Apolipoprotein A-1. The conditions noted are these: FIG. 3.
The conditions of test [1]: relative to Enrollment Visit. The source says: Table 2 presents the ACR20 (American College of Rheumatology 20% improvement in response rate) response rates (relative to Enrollment Visit, i.e., pre-TOFACITINIB treatment).
The next test has as its system total cholesterol. The conditions noted are these: FIG. 6.
A further test has as its system LDL-C. The conditions noted are these: for Percent Change from Baseline in LDL, adjusted mean: TOFACITINIB 10 mg BID.
The next test deals with triglycerides. The conditions noted are these: FIG. 5.
The next test concerns Apolipoprotein B. The conditions noted are these: FIG. 4.
A further test relates to HDL. The conditions noted are these: FIG. 2.
Setting [2] is: following introduction of TOFACITINIB treatment.
Where [3] appears, read: after Enrollment Visit (introduction of TOFACITINIB treatment).

Take `C[C@@H]1CCN(C(=O)CC#N)C[C@@H]1N(C)c1ncnc2[nH]ccc12` [TOFACITINIB, 3-{(3R,4R)-4-Methyl-3-[methyl-(7H-pyrrolo-[2,3-d]pyrimidin-4-yl)-amino]-piperidin-1-yl}-3-oxo-propionitrile]: the “Apolipoprotein A-1 level, trend” value in the test on Apolipoprotein A-1 (after Baseline Visit) is on record as “slightly trend upward”; in the test with Apolipoprotein A-1 (setting [2]) it was “increases”. For the same molecule, the “ACR20 response rate, % of responders” value in test [1] (Baseline (after 6 week treatment of TOFACITINIB 10 mg BID), atorvastatin group before add-on) amounted to 76.0%; in test [1] (Baseline (after 6 week treatment of TOFACITINIB 10 mg BID), placebo group before add-on) it was 76.6%; in test [1] (Week 12, after 6 week treatment of atorvastatin or placebo added on to TOFACITINIB 10 mg BID), 65.2%. For the same molecule, the “ACR20 response, number of responders” value in test [1] (Baseline (after 6 week treatment of TOFACITINIB 10 mg BID), atorvastatin group before add-on, N 50) worked out at 38; in test [1] (Baseline (after 6 week treatment of TOFACITINIB 10 mg BID), placebo group before add-on, N 47), 36; in test [1] (Week 12, after 6 week treatment of atorvastatin or placebo added on to TOFACITINIB 10 mg BID, N 46) it was 30. Also, the “total cholesterol level, trend” value in the test on total cholesterol (after Baseline Visit) is “slightly increasing trend”. Further, the “median total cholesterol level, trend” value in the test on total cholesterol (setting [3]) is “increase”. For the same molecule, the “Percent Change from Baseline in LDL, adjusted mean” value is on record as 5.5% in the test on LDL-C (Week 10) and 5.8% with LDL-C (Week 12 (primary endpoint)). For the same molecule, the “baseline LDL-C mean” value with LDL-C (after 6 weeks treatment with TOFACITINIB, placebo/TOFACITINIB treatment group, before placebo was added) is reported as 138.26 mg/dL. The “LDL level, trend” value with LDL-C (after Baseline Visit, FIG. 1) is on record as “slightly increasing trend”. Also, the “median LDL-C level, trend” value in the test with LDL-C (after Enrollment Visit (introduction of TOFACITINIB treatment), FIG. 1) is “increase”. In the test with LDL-C (week 12, 6 weeks following randomization), this molecule returned an LDL-C mean of 142.61 mg/dL. Also, the results for the “triglycerides level, trend” value in the test with triglycerides (after Baseline Visit) and in the test on triglycerides (setting [2]) were “increases continue” and “increase”, respectively. The “Apolipoprotein B level, trend” value in the test with Apolipoprotein B (after Baseline Visit) was “slightly increasing trend”. Moreover, the “median Apolipoprotein B level, trend” value in the test on Apolipoprotein B (setting [3]) was “increase”. For the same molecule, the entries for the “HDL level, trend” value with HDL (after Baseline Visit) and with HDL (following the Enrollment Visit) were “slight upward trend” and “increase”, respectively.
